Measurements taken from patent US8952024B2, “Herbicidal pyrimidone derivatives” (E I du Pont de Nemours and Company, priority 2009, dated 2015).

Assays:
Test in all cases: Test B pre-/postemergence plant response
Type in all cases: in vivo
[1] = system: johnsongrass (Sorghum halepense)
Method in brief: (§1)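 Greenhouse herbicide screen. Pre- and postemergence (1- to 4-leaf) spray of compound in solvent/surfactant mixture; loam–sand soil for pre, peat/vermiculite medium for post. Visual control rating 0–100 at 13 to 15 days after treatment.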

[2] = system: large crabgrass (Digitaria sanguinalis)
Method in brief: as §1

[3] = system: yellow nutsedge (Cyperus esculentus)
Method in brief: as §1

[4] = system: wheat (Triticum aestivum)
Method in brief: as §1

[5] = system: soybean (Glycine max)
Method in brief: as §1

[6] = system: woolly cupgrass (Eriochloa villosa)
Method in brief: as §1

[7] = system: ragweed (common ragweed, Ambrosia elatior)
Method in brief: as §1

[8] = system: green foxtail (Setaria viridis)
Method in brief: as §1

[9] = system: velvetleaf (Abutilon theophrasti)
Method in brief: as §1

[10] = system: kochia (Kochia scoparia)
Method in brief: as §1

[11] = system: goosegrass (Eleusine indica)
Method in brief: as §1

[12] = system: bermudagrass (Cynodon dactylon)
Method in brief: as §1

[13] = system: lambsquarters (Chenopodium album)
Method in brief: as §1

[14] = 31 g ai/ha, postemergence, scale 0 to 100, 0 is no effect, 100 is complete control
[15] = 62 g ai/ha, postemergence, 0 is no effect, 100 is complete control, 13 to 15 days
[16] = Postemergence, 125 g ai/ha, scale 0 to 100 (0 no effect, 100 complete control)
[17] = Postemergence, 250 g ai/ha, scale 0 to 100 (0 no effect, 100 complete control)
[18] = Preemergence, 31 g ai/ha, scale 0 to 100 (0 no effect, 100 complete control)
[19] = Preemergence, 62 g ai/ha, scale 0 to 100 (0 no effect, 100 complete control)
[20] = Preemergence, 125 g ai/ha, scale 0 to 100, 0 no effect, 100 complete control
[21] = Preemergence, 250 g ai/ha, 0 to 100 scale

Structure (SMILES): COCCn1c(-c2cc(F)cc(F)c2)ncc(C(=O)C2=C(O)CCCC2=O)c1=O [Compound 119]
- Plant response rating, Johnsongrass [1, 14]: 10
- Johnsongrass plant response rating (0 to 100 scale) [1, 15]: 40
- Plant response rating, Johnsongrass [1, 16]: 75
- Plant response rating, Johnsongrass [1, 17]: 80
- Plant response rating, Johnsongrass [1, 18]: 50
- Plant response rating, Johnsongrass [1, 19]: 85
- Plant response rating, Johnsongrass [1, 20]: 95
- Johnsongrass plant response rating [1, 21]: 95
- Plant response rating, Crabgrass, Large [2, 14]: 75
- Crabgrass, Large plant response rating (0 to 100 scale) [2, 15]: 85
- Plant response rating, Crabgrass, Large [2, 16]: 95
- Plant response rating, Crabgrass, Large [2, 17]: 95
- Plant response rating, Crabgrass, Large [2, 18]: 100
- Plant response rating, Crabgrass, Large [2, 19]: 100
- Plant response rating, Crabgrass, Large [2, 20]: 100
- Crabgrass, Large plant response rating [2, 21]: 100
- Plant response rating, Nutsedge, Yellow [3, 14]: 10
- Nutsedge, Yellow plant response rating (0 to 100 scale) [3, 15]: 50
- Plant response rating, Nutsedge, Yellow [3, 16]: 65
- Plant response rating, Nutsedge, Yellow [3, 17]: 75
- Plant response rating, Nutsedge, Yellow [3, 18]: 75
- Plant response rating, Nutsedge, Yellow [3, 19]: 95
- Plant response rating, Nutsedge, Yellow [3, 20]: 98
- Nutsedge, Yellow plant response rating [3, 21]: 98
- Wheat plant response rating (0 to 100 scale) [4, 15]: 40
- Plant response rating, Wheat [4, 16]: 60
- Plant response rating, Wheat [4, 18]: 0
- Plant response rating, Wheat [4, 19]: 0
- Plant response rating, Wheat [4, 20]: 30
- Wheat plant response rating [4, 21]: 50
- Soybean plant response rating (0 to 100 scale) [5, 15]: 50
- Plant response rating, Soybean [5, 16]: 60
- Plant response rating, Soybean [5, 17]: 80
- Plant response rating, Soybean [5, 18]: 10
- Plant response rating, Soybean [5, 19]: 55
- Plant response rating, Soybean [5, 20]: 80
- Soybean plant response rating [5, 21]: 80
- Plant response rating, Cupgrass, Woolly [6, 14]: 75
- Cupgrass, Woolly plant response rating (0 to 100 scale) [6, 15]: 98
- Plant response rating, Cupgrass, Woolly [6, 16]: 98
- Plant response rating, Cupgrass, Woolly [6, 17]: 100
- Plant response rating, Cupgrass, Woolly [6, 18]: 65
- Plant response rating, Cupgrass, Woolly [6, 19]: 75
- Plant response rating, Cupgrass, Woolly [6, 20]: 95
- Cupgrass, Woolly plant response rating [6, 21]: 100
- Ragweed plant response rating (0 to 100 scale) [7, 15]: 75
- Plant response rating, Ragweed [7, 16]: 95
- Plant response rating, Ragweed [7, 17]: 98
- Plant response rating, Ragweed [7, 18]: 80
- Plant response rating, Ragweed [7, 19]: 80
- Plant response rating, Ragweed [7, 20]: 95
- Ragweed plant response rating [7, 21]: 95
- Plant response rating, Foxtail, Green [8, 14]: 85
- Foxtail, Green plant response rating (0 to 100 scale) [8, 15]: 90
- Plant response rating, Foxtail, Green [8, 16]: 95
- Plant response rating, Foxtail, Green [8, 17]: 100
- Plant response rating, Foxtail, Green [8, 18]: 95
- Plant response rating, Foxtail, Green [8, 19]: 100
- Plant response rating, Foxtail, Green [8, 20]: 100
- Foxtail, Green plant response rating [8, 21]: 100
- Velvetleaf plant response rating (0 to 100 scale) [9, 15]: 80
- Plant response rating, Velvetleaf [9, 16]: 100
- Plant response rating, Velvetleaf [9, 17]: 100
- Plant response rating, Velvetleaf [9, 18]: 75
- Plant response rating, Velvetleaf [9, 19]: 80
- Plant response rating, Velvetleaf [9, 20]: 100
- Velvetleaf plant response rating [9, 21]: 100
- Plant response rating, Kochia [10, 14]: 40
- Kochia plant response rating (0 to 100 scale) [10, 15]: 75
- Plant response rating, Kochia [10, 16]: 95
- Plant response rating, Kochia [10, 17]: 100
- Plant response rating, Kochia [10, 18]: 0
- Plant response rating, Kochia [10, 19]: 0
- Plant response rating, Kochia [10, 20]: 55
- Kochia plant response rating [10, 21]: 98
- Plant response rating, Goosegrass [11, 14]: 75
- Goosegrass plant response rating (0 to 100 scale) [11, 15]: 75
- Plant response rating, Goosegrass [11, 16]: 85
- Plant response rating, Goosegrass [11, 17]: 95
- Plant response rating, Goosegrass [11, 18]: 100
- Plant response rating, Goosegrass [11, 19]: 100
- Plant response rating, Goosegrass [11, 20]: 100
- Goosegrass plant response rating [11, 21]: 100
- Plant response rating, Bermudagrass [12, 14]: 75
- Bermudagrass plant response rating (0 to 100 scale) [12, 15]: 98
- Plant response rating, Bermudagrass [12, 16]: 98
- Plant response rating, Bermudagrass [12, 17]: 98
- Plant response rating, Bermudagrass [12, 18]: 100
- Plant response rating, Bermudagrass [12, 19]: 100
- Plant response rating, Bermudagrass [12, 20]: 100
- Bermudagrass plant response rating ([12]; Preemergence, 250 g ai/ha, 0 to 100 scale, 0 no effect, 100 complete control): 100
- Plant response rating, Lambsquarters [13, 14]: 85
- Lambsquarters plant response rating (0 to 100 scale) [13, 15]: 100
- Plant response rating, Lambsquarters [13, 16]: 100
- Plant response rating, Lambsquarters [13, 17]: 100
- Plant response rating, Lambsquarters [13, 18]: 95
- Plant response rating, Lambsquarters [13, 19]: 98
- Plant response rating, Lambsquarters [13, 20]: 100
- Lambsquarters plant response rating [13, 21]: 100
